According to US9606106B2, “NMR-based metabolite screening platform” (THE CHILDREN'S MEDICAL CENTER CORPORATION, priority 2012, dated 2017):

Test system: BPLER cells
Test: cell migration assay (dual-chamber with small pores)
Format: cell-based, human
Settings: cells transfected with siRNAs against NANS or CMAS, supplemented with NANA
Protocol: However, NANA is incorporated on the cell surface of several proteins involved in cell adhesion, and loss of NANA was suspected to affect cell motility. Using a cell migration assay, cells were cultured in a dual-chamber containing small pores at the bottom of the top chamber, malignant cells (especially those with metastatic potential) are able to migrate through the pores and form colonies. As expected, shown in FIG. 12 BPLER have an increased migration rate as compared to HMLER cells due to their increased turmorigenic properties. […] To confirm NANA expression directly influences motility, a rescue experiment was performed in which cells transfected with siRNAs against NANS or CMAS were supplemented NANA. […] Monitoring NANA expression could predict the metastatic potential of a cell. In addition both NANS/CMAS are novel key targets to manipulate migration and metastasis.

SMILES: CC(=O)N[C@H]1[C@H]([C@H](O)[C@H](O)CO)OC(O)(C(=O)O)C[C@@H]1O (stereo partly shown) [NANA, N-acetylneuraminic acid]
- rescue of migration phenotype: partially restore
